Data from ChEMBL document CHEMBL1201862, “PubChem BioAssay data set” (2004).
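Test compounds were applied to cells in 96-well plates for 48 hours at 5 doses. Here, GI50 denotes the concentration required for 50% inhibition of growth.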 Active and inactive are the calls of the source. No stated cut-off is given here; in the data, active = GI50 up to about 1.1 µM and inactive = higher.

Key:
Experiment in all cases: NCI anticancer screen, dose series, 48 h
[1] = test system: IGROV-1
[2] = test system: LOX IMVI
[3] = test system: SK-MEL-28
[4] = test system: HOP-92
[5] = test system: M14
[6] = test system: HCC 2998
[7] = test system: 786-0
[8] = test system: OVCAR-4
[9] = test system: COLO 205
[10] = test system: HOP-62
[11] = test system: KM12
[12] = test system: SW-620
[13] = test system: ACHN
[14] = test system: SK-OV-3
[15] = test system: CCRF-CEM
[16] = test system: NCI-H23
[17] = test system: TK-10
[18] = test system: SNB-19
[19] = test system: SK-MEL-2

OCCCCOC(c1ccccc1)(c1ccccc1)c1ccccc1
GI50 [1]: > 100 µM (inactive)
GI50 [2]: > 100 µM (inactive)
GI50 [3]: > 100 µM (inactive)
GI50 [4]: > 100 µM (inactive)
GI50 [5]: > 100 µM (inactive)
GI50 [6]: > 100 µM (inactive)
GI50 [7]: > 100 µM (inactive)
GI50 [8]: > 100 µM (inactive)
GI50 [9]: > 100 µM (inactive)
GI50 [10]: > 100 µM (inactive)
GI50 [11]: > 100 µM (inactive)
GI50 [12]: > 100 µM (inactive)
GI50 [13]: > 100 µM (inactive)
GI50 [14]: > 100 µM (inactive)
GI50 [15]: > 100 µM (inactive)
GI50 [16]: > 100 µM (inactive)
GI50 [17]: > 100 µM (inactive)

CC(=O)Nc1ccccc1-c1cnc2ccccc2n1
GI50 [1]: > 100 µM (inactive)
GI50 [2]: > 100 µM (inactive)
GI50 [3]: > 100 µM (inactive)
GI50 [4]: > 100 µM (inactive)
GI50 [5]: > 100 µM (inactive)
GI50 [6]: > 100 µM (inactive)
GI50 [7]: > 100 µM (inactive)
GI50 [8]: > 100 µM (inactive)
GI50 [9]: > 100 µM (inactive)
GI50 [10]: > 100 µM (inactive)
GI50 [11]: > 100 µM (inactive)
GI50 [18]: > 100 µM (inactive)
GI50 [12]: > 100 µM (inactive)
GI50 [13]: > 100 µM (inactive)
GI50 [14]: > 100 µM (inactive)
GI50 [15]: > 100 µM (inactive)
GI50 [16]: > 100 µM (inactive)
GI50 [17]: > 100 µM (inactive)

CCc1cc(Cc2ccc(C)c(NC(=O)C(=O)C3C(=O)NC(=O)NC3=O)c2CC)cc(C)c1NC(=O)C(=O)C1C(=O)NC(=O)NC1=O
GI50 [1]: > 100 µM (inactive)
GI50 [2]: > 100 µM (inactive)
GI50 [3]: > 100 µM (inactive)
GI50 [5]: > 100 µM (inactive)
GI50 [6]: > 100 µM (inactive)
GI50 [7]: > 100 µM (inactive)
GI50 [8]: > 100 µM (inactive)
GI50 [9]: > 100 µM (inactive)
GI50 [10]: > 100 µM (inactive)
GI50 [11]: > 100 µM (inactive)
GI50 [18]: > 100 µM (inactive)
GI50 [12]: > 100 µM (inactive)
GI50 [13]: > 100 µM (inactive)
GI50 [14]: > 100 µM (inactive)
GI50 [15]: > 100 µM (inactive)
GI50 [16]: > 100 µM (inactive)
GI50 [17]: > 100 µM (inactive)
GI50 [19]: > 100 µM (inactive)

CC(=O)Nc1ccc(C(=O)NN2C(=O)C(Cl)C2c2ccc(O)cc2)cc1 (stereo not drawn)
GI50 [1]: > 100 µM (inactive)
GI50 [2]: > 100 µM (inactive)
GI50 [3]: > 100 µM (inactive)
GI50 [5]: > 100 µM (inactive)
GI50 [7]: 72.4 µM (inactive)
GI50 [8]: > 100 µM (inactive)
GI50 [9]: > 100 µM (inactive)
GI50 [10]: 57.9 µM (inactive)
GI50 [18]: > 100 µM (inactive)
GI50 [12]: > 100 µM (inactive)
GI50 [13]: > 100 µM (inactive)
GI50 [14]: > 100 µM (inactive)
GI50 [15]: > 100 µM (inactive)
GI50 [17]: > 100 µM (inactive)
GI50 [19]: > 100 µM (inactive)

CC1=CC(=O)NP(=O)(C23CC4CC(CC(C4)C2)C3)N1 (stereo not drawn)
GI50 [1]: > 100 µM (inactive)
GI50 [2]: > 100 µM (inactive)
GI50 [3]: > 100 µM (inactive)
GI50 [4]: > 100 µM (inactive)
GI50 [5]: > 100 µM (inactive)
GI50 [7]: > 100 µM (inactive)
GI50 [8]: > 100 µM (inactive)
GI50 [9]: > 100 µM (inactive)
GI50 [10]: > 100 µM (inactive)
GI50 [11]: > 100 µM (inactive)
GI50 [18]: > 100 µM (inactive)
GI50 [12]: > 100 µM (inactive)
GI50 [13]: > 100 µM (inactive)
GI50 [14]: > 100 µM (inactive)
GI50 [15]: > 100 µM (inactive)
GI50 [16]: > 100 µM (inactive)
GI50 [17]: > 100 µM (inactive)
GI50 [19]: > 100 µM (inactive)

O=C1OC(O)C(Oc2c(Cl)cccc2Cl)=C1Cl (stereo not drawn)
GI50 [1]: 17.2 µM (inactive)
GI50 [2]: 17.9 µM (inactive)
GI50 [3]: 20.2 µM (inactive)
GI50 [4]: 18 µM (inactive)
GI50 [5]: 17 µM (inactive)
GI50 [6]: 23.3 µM (inactive)
GI50 [7]: 17.1 µM (inactive)
GI50 [9]: 16.5 µM (inactive)
GI50 [10]: 17.7 µM (inactive)
GI50 [11]: 22.3 µM (inactive)
GI50 [18]: 27.5 µM (inactive)
GI50 [12]: 15.1 µM (inactive)
GI50 [13]: 17.2 µM (inactive)
GI50 [14]: 19.5 µM (inactive)
GI50 [15]: 19.9 µM (inactive)
GI50 [16]: 17.7 µM (inactive)
GI50 [17]: 23.6 µM (inactive)
GI50 [19]: 15.3 µM (inactive)

Cc1cc(NS(=O)(=O)c2ccc(NC(=O)c3ccc(Cl)c4c(Nc5ccc(S(N)(=O)=O)cc5)c5ccccc5nc34)cc2)no1
GI50 [1]: 21.2 µM (inactive)
GI50 [2]: 14.6 µM (inactive)
GI50 [3]: 20.3 µM (inactive)
GI50 [4]: 19.7 µM (inactive)
GI50 [5]: 26.9 µM (inactive)
GI50 [6]: 18.7 µM (inactive)
GI50 [7]: 18.3 µM (inactive)
GI50 [8]: 24.3 µM (inactive)
GI50 [9]: 18.7 µM (inactive)
GI50 [10]: 21.2 µM (inactive)
GI50 [11]: 19.6 µM (inactive)
GI50 [18]: 14.7 µM (inactive)
GI50 [12]: 17.4 µM (inactive)
GI50 [13]: 29.1 µM (inactive)
GI50 [14]: 34.8 µM (inactive)
GI50 [16]: 23.4 µM (inactive)
GI50 [17]: 27 µM (inactive)

CCOC(=O)CNC1C(NC(C)=O)C(OC)OC2COC(c3ccccc3)OC21 (stereo not drawn)
GI50 [1]: > 100 µM (inactive)
GI50 [2]: > 100 µM (inactive)
GI50 [3]: > 100 µM (inactive)
GI50 [4]: > 100 µM (inactive)
GI50 [5]: > 100 µM (inactive)
GI50 [6]: > 100 µM (inactive)
GI50 [7]: > 100 µM (inactive)
GI50 [8]: > 100 µM (inactive)
GI50 [9]: > 100 µM (inactive)
GI50 [11]: > 100 µM (inactive)
GI50 [18]: > 100 µM (inactive)
GI50 [12]: > 100 µM (inactive)
GI50 [13]: > 100 µM (inactive)
GI50 [14]: > 100 µM (inactive)
GI50 [15]: > 100 µM (inactive)
GI50 [16]: > 100 µM (inactive)
GI50 [17]: > 100 µM (inactive)
GI50 [19]: > 100 µM (inactive)

C=C1[C@@H]2CCC3[C@]4(C)C(CC[C@@]5(C)C(=O)O[C@H](O)[C@@H]45)[C@H](O)[C@]3(C2)[C@H]1OC1OC(CO)C(O)C(O)C1O (stereo partly drawn)
GI50 [1]: > 50 µM (inactive)
GI50 [2]: > 50 µM (inactive)
GI50 [3]: > 50 µM (inactive)
GI50 [5]: > 50 µM (inactive)
GI50 [7]: > 50 µM (inactive)
GI50 [8]: > 50 µM (inactive)
GI50 [9]: > 50 µM (inactive)
GI50 [10]: > 50 µM (inactive)
GI50 [11]: > 50 µM (inactive)
GI50 [18]: > 50 µM (inactive)
GI50 [12]: > 50 µM (inactive)
GI50 [13]: > 50 µM (inactive)
GI50 [14]: > 50 µM (inactive)
GI50 [16]: > 50 µM (inactive)
GI50 [17]: > 50 µM (inactive)
GI50 [19]: > 50 µM (inactive)

COc1cc2c(c(OC)c1OC)-c1ccc(SC)c(=O)cc1C(CC(=O)Oc1cccc(C#N)c1)C2 (stereo not drawn)
GI50 [1]: 2.06 µM (inactive)
GI50 [2]: 0.484 µM (active)
GI50 [3]: 0.724 µM (active)
GI50 [4]: 2.31 µM (inactive)
GI50 [5]: 0.298 µM (active)
GI50 [6]: 0.254 µM (active)
GI50 [7]: 0.475 µM (active)
GI50 [8]: 3.32 µM (inactive)
GI50 [9]: 0.336 µM (active)
GI50 [10]: 0.638 µM (active)
GI50 [11]: 0.292 µM (active)
GI50 [18]: 0.678 µM (active)
GI50 [12]: 0.327 µM (active)
GI50 [13]: 0.593 µM (active)
GI50 [14]: 0.046 µM (active)
GI50 [15]: 0.337 µM (active)
GI50 [16]: 0.454 µM (active)
GI50 [19]: 0.348 µM (active)

C=CCNC(=S)N1CC(C)C(=O)Nc2cc(Cl)ccc21 (stereo not drawn)
GI50 [1]: > 100 µM (inactive)
GI50 [3]: > 100 µM (inactive)
GI50 [4]: > 100 µM (inactive)
GI50 [5]: > 100 µM (inactive)
GI50 [7]: > 100 µM (inactive)
GI50 [8]: > 100 µM (inactive)
GI50 [9]: > 100 µM (inactive)
GI50 [10]: > 100 µM (inactive)
GI50 [11]: > 100 µM (inactive)
GI50 [18]: > 100 µM (inactive)
GI50 [13]: > 100 µM (inactive)
GI50 [14]: > 100 µM (inactive)
GI50 [16]: > 100 µM (inactive)
GI50 [17]: > 100 µM (inactive)
GI50 [19]: > 100 µM (inactive)

C=CCNC1=C(C(=O)OCC)C(=O)CO1
GI50 [1]: > 100 µM (inactive)
GI50 [2]: > 100 µM (inactive)
GI50 [3]: > 100 µM (inactive)
GI50 [4]: > 100 µM (inactive)
GI50 [5]: > 100 µM (inactive)
GI50 [6]: > 100 µM (inactive)
GI50 [7]: > 100 µM (inactive)
GI50 [8]: > 100 µM (inactive)
GI50 [18]: > 100 µM (inactive)
GI50 [12]: > 100 µM (inactive)
GI50 [13]: > 100 µM (inactive)
GI50 [15]: > 100 µM (inactive)
GI50 [16]: > 100 µM (inactive)
GI50 [17]: > 100 µM (inactive)
GI50 [19]: > 100 µM (inactive)
